# Laboratory results from article PMC7763444, “Bioactive Steroids from the Red Sea Soft Coral Sinularia polydactyla” (Marine Drugs, 2020).
# What was measured:
# [1] = tested on: HeLa (human cervical cancer cell line); assay: Cytotoxicity, resazurin assay, 72 h; details: read-out: Cytotoxicity (IC50) HeLa
# Experimental: (§1) Initially, the cytotoxic activity of metabolites 3–7, 9–12, 14–20, and 22–26 was evaluated in human cancer and normal cells after 72 h of treatment. Human cervical cancer (HeLa), human breast adenocarcinoma (MCF7) cell lines, and human normal fibroblasts (BJ) were used for the screening.
# (§2) The tested compounds were dissolved in DMSO to afford 10 mM stock solutions. Human cervical carcinoma (HeLa) and human breast adenocarcinoma (MCF7) cell lines were purchased from European Collection of Authenticated Cell Cultures (ECACC, Salisbury, UK) and cultivated in Dulbecco’s Modified Eagle Medium (DMEM) (Merck, Darmstadt, Germany), as previously reported [27]. […] All cells were maintained in a humidified CO2 incubator at 37 °C using the standard trypsinization procedure twice or three times a week. […] All cells were maintained in a humidified CO2 incubator at 37 °C using the standard trypsinization procedure twice or three times a week.
# (§3) In cytotoxicity assays, cancer cells were treated with six different concentrations of each tested compound for 72 h. Cells were stained with resazurin and IC50 values were calculated as previously reported [26]. Triplicates from at least three independent experiments were used.
# [2] = tested on: MCF7 (human breast adenocarcinoma cell line); assay: Cytotoxicity, resazurin assay, 72 h; details: MCF7, 72 h, read-out: Cytotoxicity (IC50) MCF7
# Experimental: as §1, §2, §3
# [3] = in vitro; details: human
# Experimental: as §1, §3
# [4] = tested on: androgen receptor (AR); assay: AR-transcriptional reporter assay (luciferase) in 22Rv1-ARE14 cells; details: 24 h; for Luciferase activity (AR-mediated transcription), in words: six concentrations, already at submicromolar concentrations
# Experimental: Therefore, we further analyzed the influence of the isolated steroids on AR-mediated transcription. […] Control cells were grown in charcoal-stripped serum medium (CSS). Cells were stimulated with either 1 nM methyltrienolone R1881 (R) or with the tested compounds in six different concentrations for 24 h in CSS. The luciferase activity was measured in the cell lysate. […] The experiment was repeated three times in triplicates.
# AR-transcriptional reporter assays were performed on 22Rv1-ARE14 cells after 24 h of incubation, as previously described [22].
# [5] = tested on: BJ (human normal fibroblasts)
# Experimental: as §1, §3
# [6] = tested on: human umbilical vein endothelial cells (HUVEC); assay: Migration scratch assay; assay type: cell-based; details: 20 µM, 20 h of treatment
# Experimental: Subsequently, we examined whether the isolated steroids could influence angiogenesis or inflammation in vitro. […] Only non-cytotoxic concentrations in HUVECs were used for the scratch assay.
# The scratch test was performed with HUVEC cells and evaluated after 20 h of treatment, as previously reported.
# [7] = tested on: neuron-like SH-SY5Y cells; assay: Cell death in 3-NPA model, propidium iodide (PI) assay; assay type: cell-based, human; details: maximal effect at 10 µM, with 20 mM 3-NPA, 48 h
# Experimental: In order to evaluate the potential neuroprotective effect of the compounds, neuroblastoma cell line SH-SY5Y was differentiated for 48 h and further exposed to 20 mM 3-nitropropionic acid (3-NPA) as an agent mimicking Huntington’s disease in vitro [25]. 3-NPA was used alone or in co-treatment with the tested compounds at concentrations of 0.1–10 µM. […] In general, PI as a positively charged dye is associated with an increase of cell damage or death, since it penetrates cells with cell-disrupted membranes. Within the 3-NPA model, its toxic effect was considered as 100% of the PI signal and thus reduction of cell death was determined.
# N-acetylcysteine (NAC) was used as a positive control. * p compared with vehicle with 20 mM 3-NPA, # p compared with vehicle without 20 mM 3-NPA.
# Cell death of SH-SY5Y cells (20,000 cells/well) was determined using the propidium iodide (PI) assay according to Stone et al. with a slight modification. […] The resulting fluorescence of 3-NPA toxin was considered as 100% cell death. In the assays, neuron-like cells were treated with the tested compounds in 0.1–10 µM concentration range for 48 h. DMSO-treated cells (≤0.1% v/v) were used as healthy controls.
# [8] = Cytotoxicity, resazurin assay, 72 h; details: human, BJ cells (human normal fibroblasts)
# Experimental: as §1, §3
Compound,IC50 [1],IC50 [2],IC50 at 72 h [3],further results
"C=C(CCC(C)C1CCC2C3CCC4C(C)C(O)CCC4(C)C3CCC12C)C(C)C (stereo not drawn) [Compound 3, 4α,24-dimethyl-5α-cholest-24(28)-en-3β-οl]",> 50 µM,> 50 µM,> 50 µM,–
"CC(C)[C@@H](C)/C=C/[C@@H](C)[C@H]1CC[C@H]2[C@@H]3CC[C@H]4[C@H](C)[C@@H](O)CC[C@]4(C)[C@H]3CC[C@]12C [Compound 4, (22E,24R)-4α,24-dimethyl-5α-cholest-22-en-3β-ol]",> 50 µM,> 50 µM,> 50 µM,–
"C=C(CCC(C)C1CCC2C1(C)CCC1C3(C)CCC(O)C(C)C3CCC21O)C(C)C (stereo not drawn) [Compound 5, 4α,24-dimethyl-5α-cholest-24(28)-en-3β,8β-diol]",> 50 µM,> 50 µM,> 50 µM,–
"CC(C)[C@@H](C)/C=C/[C@@H](C)[C@H]1CC[C@@H]2[C@]1(C)CC[C@@H]1[C@@]3(C)CC[C@H](O)[C@@H](C)[C@@H]3CC[C@@]21O [Compound 6, (22E,24R)-4α,24-dimethyl-5α-cholest-22-en-3β,8β-diol]",> 50 µM,> 50 µM,> 50 µM,–
"C=C(C(=O)CC(C)C1CCC2C1(C)CCC1C3(C)CCC(O)C(C)C3CCC21O)C(C)C (stereo not drawn) [Compound 7, 23-oxo-4α,24-dimethyl-5α-cholest-24(28)-en-3β,8β-diol]",> 50 µM,> 50 µM,> 50 µM,–
"C=C(CCC(C)C1CCC2C1(C)CC(O)C1C3(C)CCC(O)C(C)C3CCC21O)C(C)C (stereo not drawn) [Compound 9, 4α,24-dimethyl-5α-cholest-24(28)-en-3β,8β,11β-triol]",25.9 ± 4.9 µM,36.4 ± 5.7 µM,18.3 ± 4 µM,–
"CC(C)[C@@H](C)/C=C/[C@@H](C)[C@H]1CC[C@@H]2[C@]1(C)C[C@H](O)[C@@H]1[C@@]3(C)CC[C@H](O)[C@@H](C)[C@@H]3CC[C@@]21O [Compound 10, (22E,24R)-4α,24-dimethyl-5α-cholest-22-en-3β,8β,11β-triol]",32.9 ± 6.8 µM,32.7 ± 1.3 µM,4.1 ± 1.9 µM,Concentration dependence of AR inhibition [4]: increased inhibition of AR
"C=C(C(=O)CC(C)C1CCC2C1(C)CC(O)C1C3(C)CCC(O)C(C)C3CCC21O)C(C)C (stereo not drawn) [Compound 11, 23-oxo-4α,24-dimethyl-5α-cholest-24(28)-en-3β,8β,11β-triol]",18.8 ± 6.4 µM,21.7 ± 1.4 µM,> 50 µM,"Cytotoxicity toward normal cells (BJ), in words [5]: absence of cytotoxicity; Inhibition of HUVEC migration [6]: partially inhibited; Rank of AR inhibition ([4]; 10 µM): strongest inhibition of AR; Luciferase activity (AR-mediated transcription), in words [4]: clearly reduced luciferase activity in a dose-dependent manner; Effect on cell death (PI assay), in words [7]: significantly reduced cell death"
"C=C(C(C)C)C(CC(C)C1CCC2C1(C)CC(O)C1C3(C)CCC(O)C(C)C3CCC21O)OC(C)=O (stereo not drawn) [Compound 12, 23ξ-acetoxy-4α,24-dimethyl-5α-cholest-24(28)-en-3β,8β,11β-triol]",15.7 ± 2 µM,25.3 ± 6.5 µM,> 50 µM,"Cytotoxicity toward normal cells (BJ), in words [5]: absence of cytotoxicity; Inhibition of HUVEC migration [6]: partially inhibited; Luciferase activity (AR-mediated transcription), in words [4]: clearly reduced luciferase activity in a dose-dependent manner"
"CC(C)C(C)/C=C\[C@@H](C)[C@H]1CC[C@H]2[C@]3(O)CC[C@H]4[C@H](C)[C@@H](O)CC[C@]4(C)[C@H]3[C@@H](O)[C@H](O)[C@]12C (stereo partly drawn) [Compound 14, (22Z)-4α,24ξ-dimethyl-5α-cholest-22-en-3β,8β,11β,12α-tetraol]",> 50 µM,29.1 ± 5 µM,> 50 µM,"Cytotoxicity toward normal cells (BJ), in words [5]: absence of cytotoxicity"
"C=C(CCC(C)C1CCC2C3(O)CCC4C(C)C(O)CCC4(C)C3CCC12CO)C(C)C (stereo not drawn) [Compound 15, 4α,24-dimethyl-5α-cholest-24(28)-en-3β,8β,18-triol]",19 ± 4.3 µM,18.9 ± 0.1 µM,> 50 µM,"Cytotoxicity toward normal cells (BJ), in words [5]: absence of cytotoxicity"
"CC(C)[C@@H](C)/C=C/[C@@H](C)[C@H]1CC[C@H]2[C@]3(O)CC[C@H]4[C@H](C)[C@@H](O)CC[C@]4(C)[C@H]3CC[C@]12CO [Compound 16, (22E,24R)-4α,24-dimethyl-5α-cholest-22-en-3β,8β,18-triol]",32.9 ± 5.2 µM,33.8 ± 1 µM,23.2 ± 1.4 µM,"Concentration dependence of AR inhibition [4]: increased inhibition of AR; Luciferase activity (AR-mediated transcription), in words [4]: clearly reduced luciferase activity in a dose-dependent manner"
"C=C(CCC(C)C1CCC2C3CC=C4CC(O)CCC4(C)C3CCC12C)C(C)C (stereo not drawn) [Compound 17, 24-methyl-cholesta-5,24(28)-dien-3β-οl]",> 50 µM,> 50 µM,–,IC50 at 72 h [8]: > 50 µM
"C=C(CCC(C)C1CCC2C3C(O)C=C4CC(O)CCC4(C)C3CCC12C)C(C)C (stereo not drawn) [Compound 18, 24-methyl-cholesta-5,24(28)-dien-3β,7β-diol]",22.6 ± 0.4 µM,28.6 ± 5.3 µM,> 50 µM,"Cytotoxicity toward normal cells (BJ), in words [5]: absence of cytotoxicity"
"C=C(CCC(C)C1CCC2C3CC=C4CC(O)CCC4(CO)C3CCC12C)C(C)C (stereo not drawn) [Compound 19, 24-methyl-cholesta-5,24(28)-dien-3β,19-diol]",> 50 µM,> 50 µM,> 50 µM,–
"C=C(C=CC(C)C1CCC2C3CC=C4CC(O)CCC4(CO)C3CCC12C)C(C)C (stereo not drawn) [Compound 20, (22E)-24-methyl-cholesta-5,22,24(28)-trien-3β,19-diol]",> 50 µM,> 50 µM,> 50 µM,"Concentration dependence of AR inhibition [4]: increased inhibition of AR; Luciferase activity (AR-mediated transcription), in words [4]: clearly reduced luciferase activity in a dose-dependent manner"
"CC(=O)O[C@H]1C=C2C[C@@H](O)CC[C@]2(CO)[C@H]2CC[C@]3(C)[C@@H]([C@H](C)CCCC(C)C)CC[C@H]3[C@H]12 [Compound 23, 7β-acetoxy-cholest-5-en-3β,19-diol]",12 ± 1.7 µM,11.2 ± 0.5 µM,14.5 ± 3.9 µM,"Inhibition of HUVEC migration [6]: partially inhibited; Effect on cell death (PI assay), in words [7]: significantly reduced cell death"
"C=C(CCC(C)C1CCC2C3C(=O)C=C4CC(O)CCC4(CO)C3CCC12C)C(C)C (stereo not drawn) [Compound 24, 7-oxo-24-methyl-cholesta-5,24(28)-dien-3β,19-diol]",21.4 ± 2 µM,31.7 ± 0.3 µM,45.9 ± 2.8 µM,–
"C=C(CCC(C)C1CCC2C3=CC(O)C4(O)CC(O)CCC4(C)C3CCC21C)C(C)C (stereo not drawn) [Compound 25, 24-methyl-cholesta-7,24(28)-dien-3β,5α,6β-triol]",> 50 µM,> 50 µM,> 50 µM,–
"CC(C)[C@@H](C)/C=C/[C@@H](C)[C@H]1CC[C@H]2C3=C[C@@H](O)[C@@]4(O)C[C@@H](O)CC[C@]4(C)[C@H]3CC[C@]12C [Compound 26, (22E,24R)-24-methyl-cholesta-7,22-dien-3β,5α,6β-triol]",> 50 µM,> 50 µM,> 50 µM,–
"C[C@]12CC[C@H](O)CC1=CC[C@@H]1[C@@H]2CC[C@]2(C)C(n3cnc4ccccc43)=CC[C@@H]12 [Galeterone, reference compound]",–,–,–,"Inhibition of AR-regulated transcription ([4]; 10 µM, 22Rv1-ARE14): 22%"
